Results reported in patent US20210236580A1, “Methods and Compositions for Mitigating Symptoms of Acute Respiratory Distress Syndrome” (Sytheon Ltd, priority 2020, published 2021).

Tests used:
[1] = system: interferon gamma; experiment: IFN-γ in medium of LPS-exposed 3D ciliated airway tissues, sandwich ELISA; type: cell-based, human; details: second value column of Table 6, 100 μg/ml
Method: (§6) The respective test materials were stored at room temperature and samples were solubilized in sterile water (LPS, TC, EMB) or DMSO (DEX) at 20 mg/ml, afterward all further dilutions were made in sterile distilled water. All test materials except LPS were assayed at 100 μg ml (LPS was added topically at 1 μg/ml on Day 2). Furthermore, TC and EMB were tested at 50 μg/ml and in two combinations: 50 μg/ml:50 μg/ml and 25 μg/ml:25 μg/ml. Samples were added to the feeder chamber medium contacting the basal side of the tissues on Day 1, then also topically on Day 2, together with LPS. All experimental conditions were tested in triplicates.
(§7) Twenty-four hours after pre-incubation with the test substances, the tissue cultures were exposed to 1 μg/ml endotoxin LPS and the incubation was continued for 48 additional hours. Following the incubation, the experiment tissue culture-conditioned medium was stored at −20° C. until further processing. Subsequently, IFN-α and IFN-γ were quantified in the tissue culture-conditioned medium by sandwich ELISA.

[2] = system: IL-6; experiment: IL-6 release by urban dust-stimulated human keratinocytes (ELISA); type: cell-based; details: keratinocytes + 100 ug/ml urban dust, 24 hours; 100 μM (39 μg/ml)
Method: (§1) Human Keratinocyte Cell Culture: Human adult epidermal keratinocytes were grown using EpiLife Media (60 μM calcium) supplemented with 0.2% v/v bovine pituitary extract, 1 μg/ml recombinant human insulin-like growth factor-I, 0.18 µg/ml hydrocortisone, 5 μg/ml bovine transferrin, 0.2 ng/ml human epidermal growth factor. The cells were cultured at 37 C and 5% CO2. When a sufficient number of cells had been grown, they were seeded into 24-well plates and grown until confluent. Once confluent the cells were cultured overnight in hydrocortisone free EpiLife Media.
(§2) Preparation of Urban Dust & treatment: Urban dust was obtained from Sigma Chemicals (Standard Reference Material 1649b) and prepared at 10 mg/ml in hydrocortisone free EpiLife media. The urban dust solution was then sonicated for 10 minutes on ice. The test material was prepared in hydrocortisone free media supplemented with 100 ug/ml urban dust. […] Finally, one set of cells was not exposed to urban dust and was used to establish a baseline for each cytokine. […]
(§3) A series of standards was prepared and 100 μl of each of these standards was dispensed into two wells (duplicates) in the ELISA well plate. […] Once a sufficient level of color development had occurred, 50 μl of stop solution […]) was added to each well and the plate was read at 460 nm.

[3] = system: interferon alpha; experiment: IFN-α in medium of LPS-exposed 3D ciliated airway tissues, sandwich ELISA; type: cell-based, human; details: first value column of Table 6, 100 μg/ml
Method: as §6, §7

[4] = system: IL-6; experiment: IL-6 secretion in LPS-induced human bronchial epithelial cells (HBEpC), ELISA; type: cell-based; details: 48 hrs, 20 μM
Source text: (§4) HBEpC provide an excellent model for all aspects of respiratory epithelial function and diseases, particularly those related to airway viral/bacterial infections, including tissue repair mechanisms, signaling changes and potential treatments relevant to lung injuries, mechanical and oxidative stress, inflammation, etc., including that arising from or associated with pulmonary diseases and smoking. In this study, the inflammatory cytokines IL-6 and IL-8 were induced through pretreatment of the HBEpC with lipopolysaccharide (Cat #L2630, Sigma, Saint Louis, Mo.). After 3 hours of treatment the test and control materials were added to the cultures which were then incubated at […] for 48 hrs. Thereafter the IL-8 and IL-6 levels of the test cultures were measured by ELISA.
(§5) Each experimental condition and control were assayed at least in six replicates and statistical significance assessed with paired Student test. In conducting the assay, total insoluble proteins were quantified to determine the effect of the test materials on cell proliferation according to the method described by Voigt (Voigt, W. Sulforhodamine B assay and chemosensitivity. Methods Mol Med. 2005; 110:39-48).

[5] = system: IL-6; experiment: IL-6 in LPS-exposed 3D ciliated airway tissue, sandwich ELISA; type: cell-based, human; details: 1 μg/ml LPS, 48 hours, 100 μg/ml
Method: Further dilutions were made in sterile distilled water (dH2O). […] After three hours of incubation with test materials, cells were exposed to endotoxin—1 μg/ml LPS (lipopolysaccharides from Escherichia coli O113:H10, Associates of Cape Cod, East Falmouth, Mass.) and the incubation continued for an additional 48 hours.
The tissue cultures were then evaluated for IL-6 which was quantified by Sandwich Elisa. All colorimetric measurements were performed using Molecular Devices microplate reader MAX190 and SoftMax3.1.2PRO software. Statistical significance was assessed with paired Student test. Deviations of ≥20% as compared to water control with p values below 0.05 were considered statistically significant.

[6] = system: IL-8; experiment: IL-8 secretion in LPS-induced human bronchial epithelial cells (HBEpC), ELISA; type: cell-based; details: 48 hrs
Source text: as §4, §5

[7] = system: IL-8; experiment: IL-8 release by urban dust-stimulated human keratinocytes (ELISA); type: cell-based; details: keratinocytes + 100 ug/ml urban dust, 24 hours; 100 μM (39 μg/ml)
Method: as §1, §2, §3

[8] = biological target: T1, IL-6R (Homo sapiens, UniProt P08887); details: Covid-19 patients, after treatment; preliminary findings; cited from earlier work
T1 construct: host or cells: endogenous receptor in Covid-19 patients (in vivo)
T1 sequence (P08887 20-468): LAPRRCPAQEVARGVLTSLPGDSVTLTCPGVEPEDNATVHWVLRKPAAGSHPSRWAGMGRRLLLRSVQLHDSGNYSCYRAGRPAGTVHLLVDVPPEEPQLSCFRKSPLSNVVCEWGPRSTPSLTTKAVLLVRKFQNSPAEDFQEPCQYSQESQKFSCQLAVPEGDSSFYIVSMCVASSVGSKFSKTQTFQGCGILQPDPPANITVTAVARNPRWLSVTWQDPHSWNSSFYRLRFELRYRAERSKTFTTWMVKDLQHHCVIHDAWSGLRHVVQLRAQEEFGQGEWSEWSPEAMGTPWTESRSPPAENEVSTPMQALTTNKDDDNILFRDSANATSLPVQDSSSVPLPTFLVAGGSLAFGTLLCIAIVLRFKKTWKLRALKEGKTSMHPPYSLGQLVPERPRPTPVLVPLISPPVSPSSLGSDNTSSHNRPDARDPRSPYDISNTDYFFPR

Row | Compound | Interferon alpha [1] [pg/mL] | IL-6 [2] [pg/mL] | Interferon alpha [3] [pg/mL] | IL-6 (% control) [4] [% control] | IL-6 (% control) [5] [% control] | IL-8 (% control) ([6]; 20 μM) | IL-8 (% control) ([6]; 40 μM) | IL-8 [7] [pg/mL] | effect on fevers [8] | patients experiencing a reduced need for supplemental oxygen [8] [%]
1 | C[C@@H]1C[C@H]2[C@@H]3CCC4=CC(=O)C=C[C@]4(C)[C@@]3(F)[C@@H](O)C[C@]2(C)[C@@]1(O)C(=O)CO [Dexamethasone] | 20 | 61.0 ± 13.9 | 6 | 77 | 123 | 98 | 91 | 86.9 ± 24.5 |  | 
2 | Actemra: humanized anti-IL-6R monoclonal antibody |  |  |  |  |  |  |  |  | rapidly reduced fevers | 75
